Measured values: patent US8835644B2, “Broad spectrum benzothiophene-nitrothiazolide and other antimicrobials” (University of Virginia Patent Foundation, priority 2009, dated 2014)
≈ marks a conversion by molar mass, not a printed value. Read-outs that look alike come from different tables or passages of the source.

Key:
[1] = test system: C. difficile; test: MIC by agar dilution, C. difficile; type: cell-based, Clostridium difficile
Experimental: A standard broth dilution protocol was used in 96 well microplates containing a standard dilution of the microorganism to be tested in 100 microliters of the appropriate medium. Appropriate medium: E. coli, LB medium; Staphylococcus strains, Trypticase Soy; and for H. pylori and C. jejuni, Brain Heart Infusion. The compounds to be tested were set at 32 μg/ml in 200 microliters in well one and then serially diluted to provide a range from 32 to 0.06. The wells were scored visually at 24 h. The well where there was no growth was recorded as the MIC. […]
Representative compounds of the invention were tested in a series of assays against a series of organisms as described above. […] The organisms tested include, C. difficile, H. pylori, C. jejuni, MRSA, S. epidermidis, and E. coli. S. epidermidis and E. coli were tested in the plank and biofilm assay. A disk diffusion assay was also used for C. difficile. Direct PFOR enzyme assays were also performed. All analogues and derivatives were not tested on every organism in every type of assay (the “-” in each table means that it was not tested).

[2] = test system: H. pylori; test: MIC testing by broth dilution, H. pylori; type: cell-based, Helicobacter pylori
Outline: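 Helicobacter pylori was tested using a standard broth dilution method in 96 well microplates, each well holding a standard dilution of the organism in 100 microliters of Brain Heart Infusion. Compounds started at 32 μg/ml in 200 microliters in the first well and were serially diluted from 32 to 0.06. Wells were read visually at 24 h, and the MIC was the well with no growth.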

[3] = test system: S. epidermidis; test: MIC testing by broth dilution, S. epidermidis plank; type: cell-based, Staphylococcus epidermidis
Outline: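 Compounds were diluted serially from 32 μg/ml to 0.06 in medium holding a standard inoculum, then visually scored at 24 h, and the lowest well without growth was recorded. Media were LB for E. coli, Trypticase Soy for S. epidermidis and Brain Heart Infusion for C. jejuni. C. difficile zones were measured anaerobically relative to NTZ.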

[4] = test system: S. epidermidis; test: Aerobic growth of S. epidermidis in shaken TSB flasks; type: cell-based, Staphylococcus epidermidis
Experimental: Minimal inhibitory concentration testing of NTZ was done in sterile round bottom 96 well microtiter polystyrene plates (Corning Inc., Corning, N.Y.) by microdilution. Tizoxanide TIZ (deacetylated form of NTZ), denitro-NTZ (TIZ without 5-nitro group) and amoxanide AMIX (TIZ-ethylamine) were also tested. Bacteria were grown overnight and suspended in fresh TSB to an OD600 of 0.01 and 100 μl were dispensed into wells with the first well containing 200 μA NTZ and other antibiotics (DMSO control) were added to well one and serially diluted from 32 μg/ml. All compounds were tested in triplicate and plates were read visually or with a plate reader (Molecular Devices) at 8, 12 and at 24 h. MIC was determined as the first well in which no visible bacterial growth was noted relative to controls. Drug effects on aerobic growth were determined in 125 ml flasks containing 25 ml of TSB medium and following inoculation (detailed above), flasks were on a gyrorotary shaker (200 rpm) at 37° C. Final concentrations of NTZ were 0, 10 and 25 μg/ml and samples were removed at hourly intervals and absorbance determined at 600 nm.

[5] = test system: S. epidermidis 9142; test: Catheter adherence model; type: cell-based, Staphylococcus epidermidis; details: 24 h, dose dependent, within the IC50 range
Experimental: An overnight culture of S. epidermidis 9142 was used to inoculate fresh TSB medium to a final OD600 of 0.01 in a volume of 3 ml in 15 ml screw capped tubes. Sterile sheets of polyurethane were divided into 1 cm square pieces and placed into tubes containing different concentrations of NTZ or controls containing DMSO. The tubes were incubated for 24 h with shaking. Each catheter portion was washed 3 times with sterile PBS, suspended in 4 ml sterile PBS and sonicated for 10 min in a sonic water bath. 10 μl of the sonicated fluid was diluted in fresh PBS and plated onto TSA plates and incubated at 37° C. overnight. Bacteria were enumerated (triplicate plates) and the mean and standard deviation were determined and reported as CFU/ml. Viability effects were corrected for by plating the supernatants from the 3 ml experiment for total bacterial counts.

[6] = test system: E. coli 042 aggR-lacZ; test: Reporter gene fusions aggR-lacZ, aafA-phoA; type: cell-based, Escherichia coli; details: β-galactosidase, static growth, 12 μg/ml NTZ
Experimental: Reporter gene fusions were provided by James Nataro (University of Maryland) and included E. coli 042 aggR-lacZ and E. coli 042 aafA-phoA (3.4.14 and 2.94) (3) and an undefined promoterless lacZ control strain of E. coli 042. Strains were grown without shaking in MinA-G medium supplemented with 0, 12 or 25 μg/ml of NTZ for 16 h at 37° C. β-Galactosidase activity was determined spectrophotometrically and reported in Miller units (24). Alkaline phosphatase activity was also determined spectrophotometrically using p-nitrophenol as previously described (23). All assays were performed in triplicate in three independent experiments and the mean and standard deviation are reported.

## CC(=O)Oc1ccccc1C(=O)Nc1ncc([N+](=O)[O-])s1 [Nitazoxanide, 2-(acetyloxy)-N-(5-nitro-2-thiazolyl)benzamide, reference compound]
[1]; 2-amino-3,5-dinitrothiophene analogues table, read-out: MIC C. difficile
  MIC: 52.1 µM (≈ 16 µg/mL)
[1]; Clostridioides difficile, Furan analogues table, read-out: MIC C. difficile
  MIC: 52.1 µM (≈ 16 µg/mL)
[1]; Clostridioides difficile, agar dilution, anaerobic, Wilkins Chalgrin agar, read-out: MIC (μM) C. difficile
  MIC: 52.1 µM (≈ 16 µg/mL)
[1]; Thiophene analogues table, read-out: MIC C. difficile
  MIC: 52.1 µM (≈ 16 µg/mL)
[2]; 2-amino-3,5-dinitrothiophene analogues table, read-out: MIC H. pylori
  MIC: 13.0 µM (≈ 3.99 µg/mL)
[2]; Helicobacter pylori, Furan analogues table, read-out: MIC H. pylori
  MIC: 13 µM (≈ 3.99 µg/mL)
[2]; Helicobacter pylori, broth dilution, Brain Heart Infusion, 24 h, read-out: MIC (μM) H. pylori
  MIC: 13 µM (≈ 3.99 µg/mL)
[2]; Thiophene analogues table, read-out: MIC H. pylori
  MIC: 13.0 µM (≈ 3.99 µg/mL)
[3]; Staphylococcus epidermidis, broth dilution, Trypticase Soy, 24 h, read-out: MIC (μM) S. epidermidis Plank
  MIC: 52.1 µM (≈ 16 µg/mL)
[3]; planktonic, 2-amino-3,5-dinitrothiophene analogues table, read-out: MIC S. epidermidis Plank
  MIC: 52.1 µM (≈ 16 µg/mL)
[3]; planktonic, Thiophene analogues table, read-out: MIC S. epidermidis Plank
  MIC: 52.1 µM (≈ 16 µg/mL)
[4]; 10 μg/ml
  Effect on exponential growth rates: little effect on exponential growth rates
[4]; 25 μg/ml
  Inhibition of growth in liquid culture under vigorous aeration: significant inhibition
[5]
  Attachment to catheter material: inhibited attachment
[6]
  Increase in aggR:lacZ expression over untreated controls: ~2.5 fold
